Laboratory results: patent publication US11440935B2, “3″,5″-dimethoxybenzoyl-3′-amino-3′-deoxy adenosine-5′-triphosphates and pharmaceutical uses thereof” (Danmir Therapeutics, LLC, priority 2018, dated 2022)

Legend:
[1] = system: nodose ganglion vagal sensory nerve terminals; assay: ATP-induced neural action potentials in guinea-pig lung-vagus preparation ex vivo; conditions: ATP 10 μM; DT-0111 1 mM; innervated guinea-pig lung ex vivo
Method: The innervated guinea-pig lung preparation was prepared as was described in Undem B J, Chuaychoo B, Lee M G, Weinreich D, Myers A C, Kollarik M. Subtypes of vagal afferent C-fibres in guinea-pig lungs. J Physiol 2004; 556: 905-917; Weigand L A, Ford A P, Undem B J. A role for ATP in bronchoconstriction-induced activation of guinea pig vagal intrapulmonary C-fibres. J Physiol 2012; 590: 4109-4120. The contents of Undem et al. and Weigand et al. are incorporated herein for the purpose of the preparation of the innervated guinea-pig lung preparation. The response to ATP (10 μM; 1 ml, slowly infused into trachea and pulmonary artery) was assessed as the number of action potentials it elicited. Two control responses 15 minutes apart were recorded. There was not differences in the number of action potentials evoked between the first and second response (p>0.1). Subsequently, the lung superfused and perfused via both trachea and pulmonary artery for 15 min with increasing concentration of DT-0111 and the ATP challenge was repeated. The data were quantified as the total number of action potentials evoked and the peak frequency (Hz) as measured by the most action potentials evoked in any 1 s bin. DT-0111 was prepared in distilled water as a 10 mM solution, and aliquots were stored frozen at −20° C. (1-5 days). […]

[2] = system: anesthetized guinea-pigs; assay: ATP-induced bronchoconstriction in anesthetized guinea-pig (tracheal pressure); type: in vivo; conditions: pretreatment with aerosolized DT-0111, anesthetized guinea-pigs
Method: Male Dunkin-Hartley guinea pigs (GPs) (220-250 g, Charles River) were quarantined for 14 days. The housing room was constantly ventilated, and the temperature kept at 23° C. Mean body weight of the GPs on day of experiment was 336.0±9.9 g. Anesthesia were induced by using a mixture of ketamine+xylazine (40-80 mg/kg+5-10 mg/kg; IM) as previously published (Zhuang, et al., “High-Frequency Electrical Stimulatino of Cervical Vagi Reduces Airway Response to Methacholine,” World J. of Respirology 2013 Jul. 28; 3(2): 11-19). Supplementary anesthetic doses (¼-½ of the original dose) were administered as needed if ear pinch changed respiratory rate and/or upon the manifestation of an accelerated heart rate. Body temperature was monitored continuously with a rectal thermometer and maintained at approximately 36.5° C. using a heating pad and lamp. […]
The side branch of the tracheal cannulation was connected a pressure transducer. The pressure signal was pre-amplified by a bridge amplifier (AD Instruments Inc., CO) and then digitized and recorded. […] The pressure signal and animal rectal temperature were monitored and digitally recorded continuously in computer files throughout the experiment using the PowerLab/8 sp data acquisition system (AD Instruments) with DELL XPS 8700 computer equipped with Microsoft Windows 7 and LabChart Pro 7 software. […]

Substance: Sodium 3′-N-(3,5-dimethoxybenzoyl)-3′-deoxy-β-D-adenosine 5′-triphosphate [DT-0111]
- effect on ATP-induced action potentials [1]: markedly suppresses the effect of ATP
- tracheal pressure (Ptr) after ATP doses [2]: significantly suppressed
